Reference: patent US11406642B2, “DNP and DNP prodrug treatment of neuromuscular, neurodegenerative, autoimmune, developmental, traumatic brain injury, concussion, dry eye disease, hearing loss and/or metabolic diseases” (priority 2016, dated 2022)
“Also recorded” adds a separate entry of the source.

Columns and labels:
[1] = Stability of II-38 in phosphate buffer, pH 7.4; type: physicochemical; conditions: pH 7.4, 37° C., 5% DMSO, within 8 h
Method: pH: Stability in aqueous buffers (37° C., pHs 1.2 and 7.4)
(§1) HPLC analysis was carried out on an Agilent 1200 Infinity Series Quatpump, equipped with a photodiode array detector and a computer integrating apparatus. An Inertsil ODS-3 column, C18, 5 μm, 4.6×50 mm (GL Science Inc. Japan) protected with a guard column: Alltima C18, 5 μm, 4.6×7.5 mm (Grace Discovery Sciences, IL, USA) was used as the stationary phase. An isocratic method with a mobile phase consisting of water/acetonitrile (70:30) containing 0.05% formic acid in each was used. A flow rate of 0.9 mL/min was used and detection was carried out at a UV wavelength of 250 nm.
Formulation of II-38 in phosphate buffer (PB): to formulate 1 mg/mL of II-38 in PB, 2.6 mg of II-38 was formulated in 0.13 mL of DMSO (i.e. 5%) and added slowly and gradually to a total volume of 2.47 mL of preheated PB (Table 2) in a Franz cell diffusion chamber preheated to 37° C. The solution was mixed for 30 sec every half an hour using magnetic stirrer. Samples of 20 μL (20 ug/mL of II-38) were collected at 0, 0.5, 1, 2, 4, 6 and 8 h. Each sample was mixed with acetonitrile QS to 1 mL, vortex-mixed for 30 sec and centrifuged at 10,000 rpm at room temp. A volume of 10 μL of the supernatant was injected into the HPLC spectrometer.

[2] = Stability in simulated gastric fluid (SGF), pH 1.2; type: in vitro ADME; conditions: pH 1.2, 37° C.
Method: GI: Stability in simulated gastric fluid (USP, 37° C.)
as §1
To formulate 1 mg/mL of II-38 in SGF, 3.1 mg of II-38 was dissolved in 0.155 mL of DMSO (i.e. 5%) and added slowly and gradually to a total volume of 2.945 mL of preheated SGF (Table 3) in a cell diffusion chamber preheated to 37° C. The solution was mixed for 30 sec. every half an hour using magnetic stirrer. Samples of 20 μL (20 μg/mL of II-38) were collected at 0, 1, 2, 4, 6 and 8 h. Each sample was mixed with acetonitrile QS to 1 mL, vortex-mixed for 30 sec and centrifuged at 10,000 rpm at room temp. A volume of 10 μL of the supernatant was injected into the HPLC spectrometer.

[3] = Stability in simulated intestinal fluid (SIF), pH 6.8; type: in vitro ADME; conditions: pH 6.8, 37° C.
Method: GI: Stability in simulated intestinal fluid (USP, 37° C.)
as §1
Formulation of II-38 in SIF buffer, pH 6.8: to formulate 1 mg/mL of II-38 in SIF, 2.6 mg of II-38 was dissolved in 0.13 mL of DMSO (i.e. 5%) and titrated slowly and gradually to a total volume of 2.47 mL of preheated SIF (Table 4) in a cell diffusion chamber preheated to 37° C. The solution was mixed for 30 sec every half an hour using magnetic stirrer. Samples of 20 μL (20 μg/mL of II-38) were collected at 0, 0.5, 1, 2, 4, 6 and 8 h (FIGS. 12A and 12B). Each sample was mixed with acetonitrile QS to 1 mL, vortex-mixed for 30 sec and centrifuged at 10,000 rpm at room temp. A volume of 10 μL of the supernatant was injected into the HPLC spectrometer (FIG. 11).

dopaminergic neurons = assay: Parkinson model using 6-OHDA; type: in vivo; conditions: chronic treatment
Text: In one embodiment, the invention provides compositions and methods for treating neurodegenerative diseases such as Alzheimer's disease, Parkinson, and Huntington's disease. It is believed that the complete lack of historic success is due to most pharmaceutical industries focusing on a downstream event, such as plaques/tangles, whereas the issue is likely upstream at the mitochondria causing high cellular stress.

ion channels = assay: Inhibition of ion channels
Text: (§2) Overt reactive oxygen species (ROSs) can be produced due to noise and certain ototoxic drugs that can damage the hair cells of the ear, resulting in either temporary or permanent hearing loss. Exposure to blast waves and continuous noise not only damaged the inner ear, but caused cell death in the hippocampus, suppressed neurogenesis and impaired memory function. Aging as well can manifest in mitochondrial dysfunction leading to hearing loss. It is emerging that attempts to treat hearing loss by targeting downstream issues is not very effective. In one embodiment, the compositions and methods of the invention relate to targeting oxidative stress upstream at the mitochondria that may be causative for many disorders. There have been a variety of attempts to lower cellular stress, such as administering anti-oxidants, however these drugs have limited tissue penetration into the brain and lower ROSs after they have been formed. […] While not being bound to theory, it is postulated that DNP modulates the mitochondrial membrane potential having a significant impact at preventing ROS formation in isolated mitochondria and in the treated wildtype mice. DNP treatment 3-hours post-ischemia reduced cerebral infarct volume 40% by protecting the penumbra or “threaten tissue” and could provide similar benefits after a blast to protect inner hair cells from eminent cell death. […]

CYP = assay: Inhibition of CYP; type: in vitro ADME
Text: as §2

Caco-2 = assay: Caco-2; type: in vitro ADME
Text: as §2

| Compound | hydrolysis / stability in phosphate buffer [1] | stability in SGF [2] | stability in SIF [3] | protection of dopaminergic neurons (dopaminergic neurons) | inhibition to ion channels (ion channels) | inhibition to CYP (CYP) | inhibition, Caco-2 (Caco-2) |
| --- | --- | --- | --- | --- | --- | --- | --- |
| O=C(Oc1ccc([N+](=O)[O-])cc1[N+](=O)[O-])N1CCOCC1 [II-38, 2,4-Dinitrophenyl morpholine-4-carboxylate] | no significant hydrolysis; also recorded: did not show significant hydrolysis; also recorded: no evidence of 2,4-DNP formation | stable | stable | – | – | – | – |
| O=[N+]([O-])c1ccc(O)c([N+](=O)[O-])c1 [2,4-DNP, 2,4-dinitrophenol] | – | – | – | positive protective effect | no inhibition | no inhibition | no inhibition |
